From ChEMBL document CHEMBL1153288, “1,3,4-Oxadiazole substituted naphthyridines as HIV-1 integrase inhibitors. Part 2: SAR of the C5 position” (Bioorg Med Chem Lett, 2009) come the findings set out here.

A short description of series [1]: Therapeutic index, CC50 for human 293T cells to EC50 for G-pseudotyped HIV. The note with it: read-out: Ratio CC50/EC50. It counts as cell-based.
Series [2] deals with Human immunodeficiency virus. In words: Antiviral activity against G-pseudotyped HIV expressed in 293T cells with pGI3Luci. The note with it: Human immunodeficiency virus 1, HEK-293T. It counts as functional, organism-based.
The nature of series [3]: Inhibition of recombinant HIV integrase strand transfer activity. The arrangement: species or system Human immunodeficiency virus.

Some results are limits rather than exact numbers.

As for `Oc1c(-c2nnc(Cc3ccc(F)cc3)o2)nc(-c2ccoc2)c2cccnc12`, the selectivity ratio in series [1] is 116. For the same compound, the concentration for a half-maximal effect (EC50) in series [2] came out at 100 nM. Also, in series [3], the 50% inhibitory concentration (IC50) is 23 nM.
For `Nc1cccc(-c2nc(-c3nnc(Cc4ccc(F)cc4)o3)c(O)c3ncccc23)c1`, in that order: 546, 15 nM and 15 nM.
For `CN1CCCN(c2nc(-c3nnc(Cc4ccc(F)cc4)o3)c(O)c3ncccc23)S1(=O)=O`, in that order: 294, 31 nM and 6 nM.
Consider `O=S1(=O)CCCN1c1nc(-c2nnc(Cc3ccc(F)cc3)o2)c(O)c2ncccc12`, for which, in series [1], the selectivity ratio was greater than 129. In series [2], this compound displayed a concentration for a half-maximal effect (EC50) of 110 nM. In series [3], the concentration for half-maximal inhibition (IC50) was found to be 8 nM.
Take `Cc1ccn(-c2nc(-c3nnc(Cc4ccc(F)cc4)o3)c(O)c3ncccc23)n1`: the selectivity ratio in series [1] was found to be 23. The midpoint of the response in series [2], the EC50, lay at 380 nM. Moreover, the concentration for half-maximal inhibition (IC50) in series [3] came out at 21 nM.
With `Oc1c(-c2nnc(Cc3ccc(F)cc3)o2)nc(-n2cccn2)c2cccnc12`, the selectivity ratio in series [1] stood at 546. This compound also gave an EC50 in series [2] of 16 nM. Moreover, the IC50 in series [3] was 4 nM.
`CC(=O)Nc1cccc(-c2nc(-c3nnc(Cc4ccc(F)cc4)o3)c(O)c3ncccc23)c1`: the selectivity ratio in series [1] was 1400. This compound also yielded a concentration for a half-maximal effect (EC50) in series [2] of 10 nM. Besides, the half-maximal inhibitory concentration (IC50) in series [3] was determined as 80 nM.
For `CN1CCN(C(=O)c2nc(-c3nnc(Cc4ccc(F)cc4)o3)c(O)c3ncccc23)CC1`, in that order: greater than 144, 97 nM and 44 nM.
For `O=C(c1nc(-c2nnc(Cc3ccc(F)cc3)o2)c(O)c2ncccc12)N1CCOCC1`, the selectivity ratio in series [1] came to 134. The same compound had a 50% effective concentration (EC50) in series [2] of 97 nM. In addition, in series [3], the IC50 worked out at 130 nM.
`O=C1OCCN1c1nc(-c2nnc(Cc3ccc(F)cc3)o2)c(O)c2ncccc12`: the selectivity ratio in series [1] was greater than 666. Also, the half-maximal effective concentration (EC50) in series [2] came to 21 nM. In addition, the IC50 in series [3] came to 13 nM.
As for `CC(=O)N(C)c1nc(-c2nnc(Cc3ccc(F)cc3)o2)c(O)c2ncccc12`, in series [1], the selectivity ratio came to 428. In series [2], this compound yielded an EC50 of 180 nM. Also, the concentration for half-maximal inhibition (IC50) in series [3] amounted to 28 nM.
For the compound `CN1CCN(c2nc(-c3nnc(Cc4ccc(F)cc4)o3)c(O)c3ncccc23)C1=O`, the selectivity ratio in series [1] is greater than 466. The same compound had a concentration for a half-maximal effect (EC50) in series [2] of 30 nM. Besides, the IC50 in series [3] stood at 15 nM.
For `CN(C)S(=O)(=O)c1ccccc1-c1nc(-c2nnc(Cc3ccc(F)cc3)o2)c(O)c2ncccc12`, in that order: 67, 29 nM and 4 nM.
As for `O=C1CCCN1c1nc(-c2nnc(Cc3ccc(F)cc3)o2)c(O)c2ncccc12`, the selectivity ratio in series [1] is greater than 156. Also, the 50% effective concentration (EC50) in series [2] was 89 nM. For the same compound, in series [3], the concentration for half-maximal inhibition (IC50) came to 19 nM.
As to `CS(=O)(=O)c1cccc(-c2nc(-c3nnc(Cc4ccc(F)cc4)o3)c(O)c3ncccc23)c1`, the selectivity ratio in series [1] turned out to be 234. The half-maximal effective concentration (EC50) in series [2] turned out to be 13 nM. Further, the IC50 in series [3] amounted to 6 nM.
For `Cc1ccccc1S(=O)(=O)Nc1nc(-c2nnc(Cc3ccc(F)cc3)o2)c(O)c2ncccc12`, in series [1], the selectivity ratio came to 74. The compound also returned an EC50 in series [2] of 190 nM. For the same compound, the IC50 in series [3] worked out at 42 nM.
For `Oc1c(-c2nnc(Cc3ccc(F)cc3)o2)nc(-c2cnccn2)c2cccnc12` the same measures were 24, 170 nM and 20 nM.
